The results in this text go back to PMC5218480 (PLoS ONE, 2017).

In the test the test system is MV-4-11 cells. Briefly: Gene expression microarray analysis (Affymetrix PrimeView) and GSEA. In kind it is cell-based, human. On the set-up: RFU PODN (11730768_x_at) / Fold change /veh PODN (11730768_x_at) / RFU LINC00158 (11744669_a_at) / Fold change /veh LINC00158 (11744669_a_at) / RFU DUSP10 (11751237_a_at) / Fold change /veh DUSP10 (11751237_a_at) / RFU ID3 (11757404_x_at) / Fold change /veh ID3 (11757404_x_at) / RFU PLEKHG5 (11737974_s_at) / Fold change /veh PLEKHG5 (11737974_s_at) / RFU LRRC4B (11730491_at) / Fold change /veh LRRC4B (11730491_at) / RFU GIMAP4 (11747438_a_at) / Fold change /veh GIMAP4 (11747438_a_at) / RFU KRT8 (11758183_x_at) / Fold change /veh KRT8 (11758183_x_at) / RFU CNN1 (11734310_a_at) / Fold change /veh CNN1 (11734310_a_at) / RFU VPS37D (11726825_at) / Fold change /veh VPS37D (11726825_at) / RFU C10orf10 (11716522_x_at) / Fold change /veh C10orf10 (11716522_x_at) / RFU KIR2DL2 /// KIR2DL4 /// KIR2DL5A /// KIR2DL5B /// KIR2DS1 /// KIR2DS2 /// KIR2DS3 /// KIR2DS4 /// KIR3DL3 /// KIR3DL3 /// KIR3DS1 (11738374_at) / Fold change /veh KIR2DL2 /// KIR2DL4 /// KIR2DL5A /// KIR2DL5B /// KIR2DS1 /// KIR2DS2 /// KIR2DS3 /// KIR2DS4 /// KIR3DL3 /// KIR3DL3 /// KIR3DS1 (11738374_at) / RFU C1QL1 (11718748_at) / Fold change /veh C1QL1 (11718748_at) / RFU TMPRSS4 (11747572_a_at) / Fold change /veh TMPRSS4 (11747572_a_at) / RFU HAMP (11756126_x_at) / Fold change /veh HAMP (11756126_x_at) / RFU RNFT2 (11725882_a_at) / Fold change /veh RNFT2 (11725882_a_at) / RFU NR4A2 (11747474_a_at) / Fold change /veh NR4A2 (11747474_a_at) / RFU ABCC12 (11746883_a_at) / Fold change /veh ABCC12 (11746883_a_at) / RFU TMEM136 (11760407_x_at) / Fold change /veh TMEM136 (11760407_x_at) / RFU CLDN22 /// WWC2 (11732394_at) / Fold change /veh CLDN22 /// WWC2 (11732394_at) / RFU HLA-DPB1 (11760878_x_at) / Fold change /veh HLA-DPB1 (11760878_x_at) / RFU SPINT1 (11716480_a_at) / Fold change /veh SPINT1 (11716480_a_at) / RFU GAP43 (11754022_s_at) / Fold change /veh GAP43 (11754022_s_at) / RFU A4GNT (11735810_at) / Fold change /veh A4GNT (11735810_at) / RFU PRB3 (11715151_x_at) / Fold change /veh PRB3 (11715151_x_at) / RFU TUBB4B (11761932_at) / Fold change /veh TUBB4B (11761932_at) / RFU CAPN14 (11732068_a_at) / Fold change /veh CAPN14 (11732068_a_at) / RFU TMCC2 (11721928_a_at) / Fold change /veh TMCC2 (11721928_a_at) / RFU IRGQ (11745062_a_at) / Fold change /veh IRGQ (11745062_a_at) / RFU FAM174B (11720279_a_at) / Fold change /veh FAM174B (11720279_a_at) / RFU TMPRSS4 (11748680_a_at) / Fold change /veh TMPRSS4 (11748680_a_at) / RFU FAM212B (11763350_a_at) / Fold change /veh FAM212B (11763350_a_at) / RFU PLEKHG5 (11743358_a_at) / Fold change /veh PLEKHG5 (11743358_a_at) / RFU ZSCAN30 (11745921_a_at) / Fold change /veh ZSCAN30 (11745921_a_at) / RFU CMKLR1 (11741424_a_at) / Fold change /veh CMKLR1 (11741424_a_at) / RFU LOC101060620 /// MAPK8IP1 (11723275_at) / Fold change /veh LOC101060620 /// MAPK8IP1 (11723275_at) / RFU SPTSSB (11747773_x_at) / Fold change /veh SPTSSB (11747773_x_at) / RFU PRSS12 (11739890_at) / Fold change /veh PRSS12 (11739890_at) / RFU BIN1 (11741810_x_at) / Fold change /veh BIN1 (11741810_x_at) / RFU WNT11 (11732464_a_at) / Fold change /veh WNT11 (11732464_a_at) / RFU C10orf10 (11716521_a_at) / Fold change /veh C10orf10 (11716521_a_at) / RFU C5orf56 (11738089_at) / Fold change /veh C5orf56 (11738089_at) / RFU CYB561 (11721691_x_at) / Fold change /veh CYB561 (11721691_x_at) / RFU ANKRD19P (11752326_a_at) / Fold change /veh ANKRD19P (11752326_a_at) / RFU OR2T12 /// OR2T33 /// OR2T8 (11738714_s_at) / Fold change /veh OR2T12 /// OR2T33 /// OR2T8 (11738714_s_at) / RFU VCAN (11748164_a_at) / Fold change /veh VCAN (11748164_a_at) / RFU JSRP1 (11732532_at) / Fold change /veh JSRP1 (11732532_at) / RFU KRTAP10-11 (11738290_x_at) / Fold change /veh KRTAP10-11 (11738290_x_at) / RFU MYO3A (11730013_a_at) / Fold change /veh MYO3A (11730013_a_at) / RFU EBF3 (11725865_a_at) / Fold change /veh EBF3 (11725865_a_at) / RFU CAMK2N1 (11719241_x_at) / Fold change /veh CAMK2N1 (11719241_x_at) / RFU C5orf56 (11738088_a_at) / Fold change /veh C5orf56 (11738088_a_at) / RFU OLFML3 (11715873_a_at) / Fold change /veh OLFML3 (11715873_a_at) / RFU LOC100653217 /// NTM (11731650_a_at) / Fold change /veh LOC100653217 /// NTM (11731650_a_at) / RFU MAPK11 (11762145_a_at) / Fold change /veh MAPK11 (11762145_a_at) / RFU FIZ1 (11724087_x_at) / Fold change /veh FIZ1 (11724087_x_at) / RFU OASL (11726364_x_at) / Fold change /veh OASL (11726364_x_at) / RFU SOX15 (11748057_x_at) / Fold change /veh SOX15 (11748057_x_at) / RFU CD79A (11719716_a_at) / Fold change /veh CD79A (11719716_a_at) / RFU HIST1H1D (11736915_at) / Fold change /veh HIST1H1D (11736915_at) / RFU CASKIN2 (11723855_a_at) / Fold change /veh CASKIN2 (11723855_a_at) / RFU LOC730098 (11760151_x_at) / Fold change /veh LOC730098 (11760151_x_at) / RFU OR4N2 (11742367_at) / Fold change /veh OR4N2 (11742367_at) / RFU PRRT2 (11749266_a_at) / Fold change /veh PRRT2 (11749266_a_at) / RFU SNX32 (11753110_a_at) / Fold change /veh SNX32 (11753110_a_at) / RFU CDHR5 (11726645_a_at) / Fold change /veh CDHR5 (11726645_a_at) / RFU RCAN1 (11760418_a_at) / Fold change /veh RCAN1 (11760418_a_at) / RFU FAM167A (11723789_a_at) / Fold change /veh FAM167A (11723789_a_at) / RFU FAM26E (11764081_at) / Fold change /veh FAM26E (11764081_at) / RFU ISYNA1 (11749810_s_at) / Fold change /veh ISYNA1 (11749810_s_at) / RFU ACY1 (11761880_at) / Fold change /veh ACY1 (11761880_at) / RFU 11764098_at / Fold change /veh 11764098_at / RFU SAMD14 (11745864_x_at) / Fold change /veh SAMD14 (11745864_x_at) / RFU NPB (11741838_a_at) / Fold change /veh NPB (11741838_a_at) / RFU TMPRSS6 (11731388_a_at) / Fold change /veh TMPRSS6 (11731388_a_at) / RFU KRTAP10-2 (11738614_at) / Fold change /veh KRTAP10-2 (11738614_at) / RFU ARHGAP8 /// PRR5-ARHGAP8 (11727945_x_at) / Fold change /veh ARHGAP8 /// PRR5-ARHGAP8 (11727945_x_at) / RFU KRTAP5-7 /// NADSYN1 (11734609_at) / Fold change /veh KRTAP5-7 /// NADSYN1 (11734609_at) / RFU RASL12 (11751679_a_at) / Fold change /veh RASL12 (11751679_a_at) / RFU CDKN2B (11736163_a_at) / Fold change /veh CDKN2B (11736163_a_at) / RFU PRF1 (11729649_at) / Fold change /veh PRF1 (11729649_at) / RFU, ZNF638 /// ZNF638-IT1 / Fold change vs veh, ZNF638 /// ZNF638-IT1 / RFU, PANK3 / Fold change vs veh, PANK3 / RFU, SH3YL1 / Fold change vs veh, SH3YL1 / RFU, ZEB2 / Fold change vs veh, ZEB2 / RFU, NRIP1 / Fold change vs veh, NRIP1 / RFU, PTTG1IP / Fold change vs veh, PTTG1IP / RFU, CAPN2 / Fold change vs veh, CAPN2 / RFU, MED14 / Fold change vs veh, MED14 / RFU, SNORA58 / Fold change vs veh, SNORA58 / RFU, C1orf63 / Fold change vs veh, C1orf63 / RFU, LRRFIP1 / Fold change vs veh, LRRFIP1 / RFU, NDUFAF7 / Fold change vs veh, NDUFAF7 / RFU, SLC12A2 / Fold change vs veh, SLC12A2 / RFU, IBTK / Fold change vs veh, IBTK / RFU, ESF1 / Fold change vs veh, ESF1 / Fold change vs veh, TMEM50B / RFU, TAOK1 / Fold change vs veh, TAOK1 / RFU, ACBD3 / Fold change vs veh, ACBD3 / RFU, TMA16 / Fold change vs veh, TMA16 / RFU, RWDD3 / Fold change vs veh, RWDD3 / RFU, BCAT1 / Fold change vs veh, BCAT1 / RFU, EDEM3 / Fold change vs veh, EDEM3 / RFU, TMEM33 / Fold change vs veh, TMEM33 / RFU, WDR75 / Fold change vs veh, WDR75 / RFU, AHCTF1 / Fold change vs veh, AHCTF1 / RFU, TFRC / Fold change vs veh, TFRC / RFU, ZDHHC17 / Fold change vs veh, ZDHHC17 / RFU, NOM1 / Fold change vs veh, NOM1 / RFU, ARL8B / Fold change vs veh, ARL8B / RFU, ZBTB11 / Fold change vs veh, ZBTB11 / RFU, TAMM41 / Fold change vs veh, TAMM41 / RFU, KIAA1704 /// LOC100996395 / Fold change vs veh, KIAA1704 /// LOC100996395 / RFU, ING1 / Fold change vs veh, ING1 / RFU, TRMT61B / Fold change vs veh, TRMT61B / RFU, FUBP3 / Fold change vs veh, FUBP3 / RFU, TP53 / Fold change vs veh, TP53 / RFU, TNKS2 / Fold change vs veh, TNKS2 / RFU, ZFP14 / Fold change vs veh, ZFP14 / RFU, ACTR2 / Fold change vs veh, ACTR2 / RFU, PPP3R1 / Fold change vs veh, PPP3R1 / RFU, PIK3R1 / Fold change vs veh, PIK3R1 / RFU, HNRNPA1 / Fold change vs veh, HNRNPA1 / RFU, RNF170 / Fold change vs veh, RNF170 / RFU, ZNF28 / Fold change vs veh, ZNF28 / RFU, RNGTT / Fold change vs veh, RNGTT / RFU, OGT / Fold change vs veh, OGT / RFU, BRD1 / Fold change vs veh, BRD1 / RFU, MARS / Fold change vs veh, MARS / RFU, ZNF655 / Fold change vs veh, ZNF655 / RFU, FAHD1 / Fold change vs veh, FAHD1 / RFU, BDP1 / Fold change vs veh, BDP1 / RFU, LRRCC1 / Fold change vs veh, LRRCC1 / RFU, ARID1A / Fold change vs veh, ARID1A / RFU, ZNF146 / Fold change vs veh, ZNF146 / RFU, ZNF330 / Fold change vs veh, ZNF330 / RFU, GPN3 / Fold change vs veh, GPN3 / RFU, C9orf123 / Fold change vs veh, C9orf123 / RFU, N4BP2L2 / Fold change vs veh, N4BP2L2 / RFU, ARFIP1 / Fold change vs veh, ARFIP1 / RFU, FAM179B / Fold change vs veh, FAM179B / RFU, BCL10 / Fold change vs veh, BCL10 / RFU, UHRF1BP1L / Fold change vs veh, UHRF1BP1L / RFU, BET1 / Fold change vs veh, BET1 / RFU, CNOT2 / Fold change vs veh, CNOT2 / RFU, ZNF268 / Fold change vs veh, ZNF268 / Fold change vs veh, ZNF507 / RFU, DGCR2 / Fold change vs veh, DGCR2 / RFU, WDSUB1 / Fold change vs veh, WDSUB1 / Fold change vs veh, HSP90B1 /// MIR3652 / RFU, ADSS / Fold change vs veh, ADSS / RFU, GK / Fold change vs veh, GK / RFU, ZNF148 / Fold change vs veh, ZNF148 / RFU, TAF9 / Fold change vs veh, TAF9 / RFU, SLC1A5 / Fold change vs veh, SLC1A5 / RFU, SLMO2 / Fold change vs veh, SLMO2 / RFU, ABCC4 / Fold change vs veh, ABCC4 / RFU, LOC101060439 /// RAP1B / Fold change vs veh, LOC101060439 /// RAP1B / RFU, RFX7 / Fold change vs veh, RFX7 / RFU, GTPBP10 / Fold change vs veh, GTPBP10 / RFU, CNEP1R1 / Fold change vs veh, CNEP1R1 / RFU, BIVM-ERCC5 /// ERCC5 / Fold change vs veh, BIVM-ERCC5 /// ERCC5 / RFU, ILF3 / Fold change vs veh, ILF3 / RFU 11762660_at / Fold change /veh 11762660_at / RFU VCAN (11757783_s_at) / Fold change /veh VCAN (11757783_s_at) / RFU DDX43 (11728927_at) / Fold change /veh DDX43 (11728927_at) / RFU KRT8 (11758188_x_at) / Fold change /veh KRT8 (11758188_x_at) / RFU NKD1 (11759106_at) / Fold change /veh NKD1 (11759106_at) / RFU SRD5A1 (11742802_a_at) / Fold change /veh SRD5A1 (11742802_a_at) / RFU TPSAB1 /// TPSB2 (11721975_s_at) / Fold change /veh TPSAB1 /// TPSB2 (11721975_s_at) / RFU GSTM3 (11746129_a_at) / Fold change /veh GSTM3 (11746129_a_at) / RFU IL23R (11737362_x_at) / Fold change /veh IL23R (11737362_x_at) / RFU TMEM51 (11727254_a_at) / Fold change /veh TMEM51 (11727254_a_at) / RFU PIWIL2 (11732686_x_at) / Fold change /veh PIWIL2 (11732686_x_at) / RFU ORM1 (11744905_x_at) / Fold change /veh ORM1 (11744905_x_at) / RFU CCDC152 (11743942_at) / Fold change /veh CCDC152 (11743942_at) / RFU ECM1 (11717891_a_at) / Fold change /veh ECM1 (11717891_a_at) / RFU IL23R (11748794_a_at) / Fold change /veh IL23R (11748794_a_at) / RFU TNFAIP8L3 (11732012_x_at) / Fold change /veh TNFAIP8L3 (11732012_x_at) / RFU MBOAT4 (11741988_at) / Fold change /veh MBOAT4 (11741988_at) / RFU 11764193_at / Fold change /veh 11764193_at / RFU TMEM53 (11763286_at) / Fold change /veh TMEM53 (11763286_at) / RFU MAGEB2 (11727129_at) / Fold change /veh MAGEB2 (11727129_at) / RFU TMEM200A (11744735_a_at) / Fold change /veh TMEM200A (11744735_a_at) / RFU CCDC152 (11751479_a_at) / Fold change /veh CCDC152 (11751479_a_at) / RFU FAM211A (11726209_a_at) / Fold change /veh FAM211A (11726209_a_at) / RFU RGS16 (11746705_a_at) / Fold change /veh RGS16 (11746705_a_at) / RFU VCAN (11755009_s_at) / Fold change /veh VCAN (11755009_s_at) / RFU RHOB (11743442_s_at) / Fold change /veh RHOB (11743442_s_at) / RFU RGS16 (11720943_a_at) / Fold change /veh RGS16 (11720943_a_at) / RFU RGS16 (11720944_at) / Fold change /veh RGS16 (11720944_at) / RFU, VPS4B / Fold change vs veh, VPS4B / RFU, CREB1 / Fold change vs veh, CREB1 / RFU, DNAJC13 / Fold change vs veh, DNAJC13 / RFU, GNAQ / Fold change vs veh, GNAQ / RFU, CDK5R1 / Fold change vs veh, CDK5R1 / RFU, ZRANB3 / Fold change vs veh, ZRANB3 / RFU, CUL4A / Fold change vs veh, CUL4A / RFU, CCNY / Fold change vs veh, CCNY / RFU, UFL1 / Fold change vs veh, UFL1 / RFU, COG3 / Fold change vs veh, COG3 / RFU, DIAPH2 / Fold change vs veh, DIAPH2 / RFU, SKA2 / Fold change vs veh, SKA2 / RFU, AFF3 / Fold change vs veh, AFF3 / RFU, LMF1 / Fold change vs veh, LMF1 / RFU, IPO11 / Fold change vs veh, IPO11 / RFU, DFFB / Fold change vs veh, DFFB / RFU, FOXP1 / Fold change vs veh, FOXP1 / RFU, CARD8 / Fold change vs veh, CARD8 / RFU, STRN3 / Fold change vs veh, STRN3 / RFU, ADK / Fold change vs veh, ADK / RFU, RASSF2 / Fold change vs veh, RASSF2 / RFU, WIPF1 / Fold change vs veh, WIPF1 / RFU, LARP1B / Fold change vs veh, LARP1B / RFU, RASA1 / Fold change vs veh, RASA1 / RFU, RB1 / Fold change vs veh, RB1 / RFU, PPFIA1 / Fold change vs veh, PPFIA1 / RFU, MAT2A / Fold change vs veh, MAT2A / RFU, CCT5 / Fold change vs veh, CCT5 / RFU, WDR92 / Fold change vs veh, WDR92 / RFU, CUX1 / Fold change vs veh, CUX1 / RFU, TTC7A / Fold change vs veh, TTC7A / RFU, TMEM135 / Fold change vs veh, TMEM135 / RFU, DEPTOR / Fold change vs veh, DEPTOR / RFU, CPM / Fold change vs veh, CPM / RFU, DNAJB6 / Fold change vs veh, DNAJB6 / RFU, CACNA2D3 / Fold change vs veh, CACNA2D3 / RFU, DTX4 / Fold change vs veh, DTX4 / RFU, TFCP2 / Fold change vs veh, TFCP2 / RFU, GMCL1 /// GMCL1P1 / Fold change vs veh, GMCL1 /// GMCL1P1 / RFU, AEBP2 / Fold change vs veh, AEBP2 / RFU, SNHG1 /// SNORD22 /// SNORD25 /// SNORD26 /// SNORD27 /// SNORD28 /// SNORD29 /// SNORD31 / Fold change vs veh, SNHG1 /// SNORD22 /// SNORD25 /// SNORD26 /// SNORD27 /// SNORD28 /// SNORD29 /// SNORD31 / Fold change (Aza/veh), C12orf56 (ProbeSet 11735607_a_at) / Fold change (ACY-1035/veh), C12orf56 (ProbeSet 11735607_a_at) / Fold change (Aza/veh), FGFR1OP (ProbeSet 11751329_s_at) / Fold change (ACY-1035/veh), FGFR1OP (ProbeSet 11751329_s_at) / Fold change (Aza/veh), VPS36 (ProbeSet 11739960_a_at) / Fold change (ACY-1035/veh), VPS36 (ProbeSet 11739960_a_at) / RFU SYPL1 (11715823_x_at) / Fold change /veh SYPL1 (11715823_x_at) / RFU IGFBP7 (11715501_s_at) / Fold change /veh IGFBP7 (11715501_s_at) / RFU REEP3 (11722064_at) / Fold change /veh REEP3 (11722064_at) / RFU IGLL1 (11728026_x_at) / Fold change /veh IGLL1 (11728026_x_at): dose or concentration left out as unconfirmed. Particulars: ProbeSet 11731093_s_at; LIST B.

The structures appear in SMILES notation.

For `Nc1ncn([C@@H]2O[C@H](CO)[C@@H](O)[C@H]2O)c(=O)n1` [azacitidine], the “RFU, BRD1” value came out at 186.03 RFU.
